The source made the active and inactive calls. The rule behind the calls is not given here.
What was measured:
[1] = molecular target: T1, Gamma-hydroxybutyrate receptor (Rattus norvegicus) (UniProt Q6RY99); conditions: at 1 µM
T1 sequence (whole entry): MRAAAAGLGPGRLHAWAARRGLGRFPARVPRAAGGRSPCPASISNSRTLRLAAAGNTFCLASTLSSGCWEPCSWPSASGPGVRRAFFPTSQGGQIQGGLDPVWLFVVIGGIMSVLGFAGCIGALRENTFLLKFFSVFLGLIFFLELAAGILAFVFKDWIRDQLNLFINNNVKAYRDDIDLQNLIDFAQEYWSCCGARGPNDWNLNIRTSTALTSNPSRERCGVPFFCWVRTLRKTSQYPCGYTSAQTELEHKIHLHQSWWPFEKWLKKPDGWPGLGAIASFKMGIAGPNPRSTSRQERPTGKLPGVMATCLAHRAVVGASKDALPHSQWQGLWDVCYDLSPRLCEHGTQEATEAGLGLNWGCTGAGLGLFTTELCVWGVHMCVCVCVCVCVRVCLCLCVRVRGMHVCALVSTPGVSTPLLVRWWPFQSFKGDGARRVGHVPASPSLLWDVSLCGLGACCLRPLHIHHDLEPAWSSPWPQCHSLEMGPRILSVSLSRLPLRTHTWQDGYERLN

[2] = molecular target: T1, Gamma-hydroxybutyrate receptor (Rattus norvegicus); conditions: at 10 µM
[3] = molecular target: T1, Gamma-hydroxybutyrate receptor (Rattus norvegicus); conditions: at 10 µM; remark: listed apart in the source

Row | SMILES | inhibition [1] [%] | inhibition [2] [%] | inhibition [3]
1 | O=C(O)CCCO | 35 | 55 | –
2 | C=C(C)[C@@H]1[C@H]2OC(=O)[C@@H]1[C@]1(O)C[C@H]3OC34C(=O)O[C@H]2[C@@]41C.CC(C)(O)[C@@H]1[C@H]2OC(=O)[C@@H]1[C@]1(O)C[C@H]3OC34C(=O)O[C@H]2[C@@]41C (some centres not stated) | – | – | inactive
3 | CC(CCO)C(=O)O (configuration not stated) | – | 24 | –
4 | CC(O)CCC(=O)O (configuration not stated) | 12 | 63 | –
5 | O=C(O)/C=C(/CO)c1ccccc1 | 21 | 34 | –
6 | NCCCC(=O)O | – | – | inactive
7 | C/C(=C\C(=O)O)CO | 11 | 55 | inactive
8 | O=C1CCCO1 | – | – | inactive
9 | O=C(O)CCC(O)c1ccccc1 (configuration not stated) | 13 | 56 | –
10 | O=C(O)CC(CO)Cc1ccccc1 (configuration not stated) | – | – | inactive
11 | O=C(O)C(CCO)c1ccccc1 (configuration not stated) | – | – | inactive
12 | O=C(O)CCO | – | – | inactive
13 | CC(C)C(CO)CC(=O)O (configuration not stated) | – | – | inactive
14 | O=C(O)/C=C/C(O)c1ccccc1 (configuration not stated) | 39 | 70 | –
15 | OCCCCO | – | – | inactive
16 | CCC(CO)CC(=O)O (configuration not stated) | – | 43 | –
17 | O=C(O)/C=C/CO | 44 | 64 | –
18 | O=C1C=CCO1 | – | – | inactive
19 | CCCC(CO)CC(=O)O (configuration not stated) | – | 5 | –
20 | O=C(O)CCCCO | 22 | 53 | –
21 | CC(CO)CC(=O)O (configuration not stated) | – | 59 | –
22 | CC(CO)C(C)C(=O)O (configuration not stated) | – | – | inactive
23 | O=C(O)CC(CO)c1ccccc1 (configuration not stated) | – | – | inactive
24 | O=C(O)/C=C/C(O)C1CCCCC1 (configuration not stated) | 13 | 46 | –
25 | O=S(=O)(O)CCCCO | – | – | inactive
26 | O=S(=O)(O)CCCO | – | – | inactive
27 | O=S(=O)([O-])CCO.[Na+] | – | – | inactive
